Measurements as given in patent US7582611B2, “Motilide compounds” (Pfizer Inc., priority 2005, dated 2009).
Values after ≈ are worked out from the molar mass of the structure shown.

Columns and labels:
Motilin Receptor = molecular target: T1, Motilin Receptor (Oryctolagus cuniculus, UniProt G1T803); assay: Tissue based assay for motilin agonist potency (rabbit duodenum contractility); assay type: cell-based; settings: rabbit duodenum strips, contraction normalized to 1 μM carbachol; read-out: Motilin Receptor Agonist Activity (EC50)
T1 construct: strips of longitudinal smooth muscle were sliced from the segments; from tissue; host or cells: rabbit duodenum longitudinal smooth muscle strips
Method in brief: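 Longitudinal smooth-muscle strips of rabbit duodenum, mucosa removed, in oxygenated Krebs at 37 °C under 1.5 g tension; auxotonic contractions. Cumulative doses at ~2 min intervals, then 1 μM carbachol; responses minus basal tension, normalized to carbachol, fitted to R=(Rmax·C)/(EC50+C) for EC50.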

[1] = test system: Streptococcus pneumoniae ATCC 6301; assay: Evaluation of antibacterial activity (MIC, serial dilutions on 96-well microtiter plates); assay type: cell-based; settings: ATCC6301, read-out: Antibacterial Activity (MIC, μg/mL)

T1 sequence (G1T803 1-400): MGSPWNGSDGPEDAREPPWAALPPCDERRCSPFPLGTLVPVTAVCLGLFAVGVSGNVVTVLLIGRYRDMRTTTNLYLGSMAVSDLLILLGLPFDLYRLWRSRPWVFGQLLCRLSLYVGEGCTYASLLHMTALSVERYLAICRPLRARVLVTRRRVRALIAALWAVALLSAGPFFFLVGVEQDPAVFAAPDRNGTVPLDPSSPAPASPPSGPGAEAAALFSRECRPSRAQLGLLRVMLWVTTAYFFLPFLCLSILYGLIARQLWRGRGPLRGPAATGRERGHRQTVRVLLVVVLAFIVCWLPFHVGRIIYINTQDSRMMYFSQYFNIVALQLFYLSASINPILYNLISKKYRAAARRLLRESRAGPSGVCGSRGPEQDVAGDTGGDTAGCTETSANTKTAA

EC50 (Motilin Receptor) | MIC [1] | SMILES
140 nM | 128 µg/mL (≈ 150 µM) | CC[C@H]1OC(=O)[C@H](C)[C@@H](O[C@H]2C[C@@](C)(OC)[C@@H](O)[C@H](C)O2)[C@H](C)[C@@H](O[C@@H]2O[C@H](C)C[C@H](N(C)CC(C)C)[C@H]2O)[C@](C)(O)C[C@@H](C)[C@H](NS(C)(=O)=O)[C@H](C)[C@@H](O)[C@]1(C)O [Compound A-38]
430 nM | > 128 µg/mL | CCOC(=O)CO[C@@H]1[C@H](C)[C@@H](O)[C@](C)(O)[C@@H](CC)OC(=O)[C@H](C)[C@@H](O[C@H]2C[C@@](C)(OC)[C@@H](O)[C@H](C)O2)[C@H](C)[C@@H](O[C@@H]2O[C@H](C)C[C@H](N(C)C[C@H](C)O)[C@H]2O)[C@](C)(O)C[C@H]1C [Compound A-9]
490 nM | 128 µg/mL (≈ 144 µM) | CC[C@H]1OC(=O)[C@H](C)[C@@H](O[C@H]2C[C@@](C)(OC)[C@@H](O)[C@H](C)O2)[C@H](C)[C@@H](O[C@@H]2O[C@H](C)C[C@H](N(C)C[C@H](C)O)[C@H]2O)[C@](C)(O)C[C@@H](C)[C@H](OS(=O)(=O)N(C)C)[C@H](C)[C@@H](O)[C@]1(C)O [Compound A-20]
220 nM | > 128 µg/mL | CCNC(=S)NCCO[C@@H]1[C@H](C)[C@@H](O)[C@](C)(O)[C@@H](CC)OC(=O)[C@H](C)[C@@H](O[C@H]2C[C@@](C)(OC)[C@@H](O)[C@H](C)O2)[C@H](C)[C@@H](O[C@@H]2O[C@H](C)C[C@H](N(C)C(C)C)[C@H]2O)[C@](C)(O)C[C@H]1C [Compound A-67]
25 nM | > 128 µg/mL | CC[C@H]1OC(=O)[C@H](C)[C@@H](O[C@H]2C[C@@](C)(OC)[C@@H](O)[C@H](C)O2)[C@H](C)[C@@H](O[C@@H]2O[C@H](C)C[C@H](N(C)C(C)C)[C@H]2O)[C@](C)(O)C[C@@H](C)[C@H](OCC(=O)Nc2ccncn2)[C@H](C)[C@@H](O)[C@]1(C)O [Compound A-77]
37 nM | 128 µg/mL (≈ 135 µM) | CC[C@H]1OC(=O)[C@H](C)[C@@H](O[C@H]2C[C@@](C)(OC)[C@@H](O)[C@H](C)O2)[C@H](C)[C@@H](O[C@@H]2O[C@H](C)C[C@H](N(C)C(C)C)[C@H]2O)[C@](C)(O)C[C@@H](C)[C@H](OCCNC(=O)c2ccc3[nH]cnc3c2)[C@H](C)[C@@H](O)[C@]1(C)O [Compound A-58]
50 nM | 128 µg/mL (≈ 146 µM) | CC[C@H]1OC(=O)[C@H](C)[C@@H](O[C@H]2C[C@@](C)(OC)[C@@H](O)[C@H](C)O2)[C@H](C)[C@@H](O[C@@H]2O[C@H](C)C[C@H](N(C)C(C)C)[C@H]2O)[C@](C)(O)C[C@@H](C)[C@H](OCC(=O)NCCOC)[C@H](C)[C@@H](O)[C@]1(C)O [Compound A-63]
210 nM | > 128 µg/mL | CC[C@H]1OC(=O)[C@H](C)[C@@H](O[C@H]2C[C@@](C)(OC)[C@@H](O)[C@H](C)O2)[C@H](C)[C@@H](O[C@@H]2O[C@H](C)C[C@H](N(C)C(C)C)[C@H]2O)[C@](C)(O)C[C@@H](C)[C@H](OCC#N)[C@H](C)[C@@H](O)[C@]1(C)O [Compound A-7]
45 nM | > 128 µg/mL | CC[C@@H](O)[C@@](C)(O)[C@@H]1OC(=O)[C@@H](C)[C@H](C[C@H]2C[C@@](C)(OC)[C@@H](O)[C@H](C)O2)[C@H](C)[C@@H](OC2O[C@H](C)C[C@H](N(C)C(C)C)[C@H]2O)[C@@]2(C)CC(C)=C(O2)[C@@H]1C (some centres unmarked) [KC-11458, reference compound]
67 nM | > 128 µg/mL | CCNC(=O)CO[C@@H]1[C@H](C)[C@@H](O)[C@](C)(O)[C@@H](CC)OC(=O)[C@H](C)[C@@H](O[C@H]2C[C@@](C)(OC)[C@@H](O)[C@H](C)O2)[C@H](C)[C@@H](O[C@@H]2O[C@H](C)C[C@H](N(C)C(C)C)[C@H]2O)[C@](C)(O)C[C@H]1C [Compound A-31]
290 nM | 128 µg/mL (≈ 149 µM) | CC[C@H]1OC(=O)[C@H](C)[C@@H](O[C@H]2C[C@@](C)(OC)[C@@H](O)[C@H](C)O2)[C@H](C)[C@@H](O[C@@H]2O[C@H](C)C[C@H](N(C)C(C)C)[C@H]2O)[C@](C)(O)C[C@@H](C)[C@H](OCc2nccs2)[C@H](C)[C@@H](O)[C@]1(C)O [Compound A-29]
140 nM | 128 µg/mL (≈ 148 µM) | CC[C@H]1OC(=O)[C@H](C)[C@@H](O[C@H]2C[C@@](C)(OC)[C@@H](O)[C@H](C)O2)[C@H](C)[C@@H](O[C@@H]2O[C@H](C)C[C@H](N(C)C(C)C)[C@H]2O)[C@](C)(O)C[C@@H](C)[C@H](OCC(=O)NC(C)C)[C@H](C)[C@@H](O)[C@]1(C)O [Compound A-53]

The next lines start with the compound.

SMILES | EC50 (Motilin Receptor) | MIC [1]
CC[C@H]1OC(=O)[C@H](C)[C@@H](O[C@H]2C[C@@](C)(OC)C[C@H](C)O2)[C@H](C)[C@@H](O[C@@H]2O[C@H](C)C[C@H](N(C)C(C)C)[C@H]2O)[C@](C)(O)C[C@@H](C)[C@H](OCC(=O)NC)[C@H](C)[C@@H](O)[C@]1(C)O [Compound A-61] | 17 nM | 128 µg/mL (≈ 156 µM)
CC[C@H]1OC(=O)[C@H](C)[C@@H](O[C@H]2C[C@@](C)(OC)[C@@H](O)[C@H](C)O2)[C@H](C)[C@@H](O[C@@H]2O[C@H](C)C[C@H](N(C)C(C)C)[C@H]2O)[C@](C)(O)C[C@@H](C)[C@H](OCCNC(C)=O)[C@H](C)[C@@H](O)[C@]1(C)O [Compound A-30] | 48 nM | > 128 µg/mL
CC[C@H]1OC(=O)[C@H](C)[C@@H](O[C@H]2C[C@@](C)(OC)[C@@H](O)[C@H](C)O2)[C@H](C)[C@@H](O[C@@H]2O[C@H](C)C[C@H](N(C)C(C)C)[C@H]2O)[C@](C)(O)C[C@@H](C)[C@H](OCCCCCC(N)=O)[C@H](C)[C@@H](O)[C@]1(C)O [Compound A-50] | 170 nM | > 128 µg/mL
CC[C@H]1OC(=O)[C@H](C)[C@@H](O[C@H]2C[C@@](C)(OC)[C@@H](O)[C@H](C)O2)[C@H](C)[C@@H](O[C@@H]2O[C@H](C)C[C@H](N(C)C(C)C)[C@H]2O)[C@](C)(O)C[C@@H](C)[C@H](OCC(=O)Nc2cnccn2)[C@H](C)[C@@H](O)[C@]1(C)O [Compound A-70] | 60 nM | 128 µg/mL (≈ 142 µM)
CC[C@H]1OC(=O)[C@H](C)[C@@H](O[C@H]2C[C@@](C)(OC)[C@@H](O)[C@H](C)O2)[C@H](C)[C@@H](O[C@@H]2O[C@H](C)C[C@H](N(C)CCO)[C@H]2O)[C@](C)(O)C[C@@H](C)[C@H](NS(C)(=O)=O)[C@H](C)[C@@H](O)[C@]1(C)O [Compound A-36] | 66 nM | 32 µg/mL (≈ 38 µM)
CC[C@H]1OC(=O)[C@H](C)[C@@H](O[C@H]2C[C@@](C)(OC)[C@@H](O)[C@H](C)O2)[C@H](C)[C@@H](O[C@@H]2O[C@H](C)C[C@H](N(C)CCO)[C@H]2O)[C@](C)(O)C[C@@H](C)[C@H](OC)[C@H](C)[C@@H](O)[C@]1(C)O [Compound A-2] | 140 nM | 64 µg/mL (≈ 82.1 µM)
CC[C@H]1OC(=O)[C@H](C)[C@@H](O[C@H]2C[C@@](C)(OC)[C@@H](O)[C@H](C)O2)[C@H](C)[C@@H](O[C@@H]2O[C@H](C)C[C@H](N(C)C(C)C)[C@H]2O)[C@](C)(O)C[C@@H](C)[C@H](OCC(=O)OC)[C@H](C)[C@@H](O)[C@]1(C)O [Compound A-22] | 140 nM | 128 µg/mL (≈ 153 µM)
CC[C@H]1OC(=O)[C@H](C)[C@@H](O[C@H]2C[C@@](C)(OC)[C@@H](O)[C@H](C)O2)[C@H](C)[C@@H](O[C@@H]2O[C@H](C)C[C@H](N(C)C(C)C)[C@H]2O)[C@](C)(O)C[C@@H](C)[C@H](OCc2ncc[nH]2)[C@H](C)[C@@H](O)[C@]1(C)O [Compound A-62] | 63 nM | 128 µg/mL (≈ 152 µM)
CC[C@H]1OC(=O)[C@H](C)[C@@H](O[C@H]2C[C@@](C)(OC)[C@@H](O)[C@H](C)O2)[C@H](C)[C@@H](O[C@@H]2O[C@H](C)C[C@H](N(C)C(C)C)[C@H]2O)[C@@]2(C)CC(C)=C(O2)[C@H](C)C(=O)[C@]1(C)OC [GM-611, reference compound] | 11 nM | 128 µg/mL (≈ 169 µM)
CC[C@H]1OC(=O)[C@H](C)[C@@H](O[C@H]2C[C@@](C)(OC)[C@@H](O)[C@H](C)O2)[C@H](C)[C@@H](O[C@@H]2O[C@H](C)C[C@H](N(C)C(C)C)[C@H]2O)[C@](C)(O)C[C@@H](C)[C@H](OCCCCC(=O)NC)[C@H](C)[C@@H](O)[C@]1(C)O [Compound A-74] | 270 nM | 128 µg/mL (≈ 146 µM)
